These results are taken from patent US20140336248A1, “THERAPEUTIC COMPOSITIONS AND RELATED METHODS OF USE” (priority 2011, published 2014).

Data set [1] concerns ICR mice. Put plainly: Tolerability 0.1, 0.3, 1.0, 3.0 mg/kg IV in 10% ethanol/10% Solutol HS 15, 4 days (Example M). Type of data set: in vivo, mouse. The procedure:
(§1) Using the techniques described above in Example B, an aqueous vehicle comprising 10% ethanol (v/v) and 10% Solutol® HS 15 (v/v) was prepared. An appropriate amount of salinomycin sodium was dissolved into the vehicle to make solutions having concentrations of 0.02, 0.06, 0.2, and 0.3 mg/mL. Ten male ICR mice (Sino-British SIPPR/BK Lab Animal Ltd, Shanghai, China) were assigned to control and treatment groups. […] The individual animal number was marked on the tail, and study number comprised a unique identification for each animal. Animal identification was verified during the course of the study. The animals were housed two per cage in stainless steel suspended cage in an environmentally controlled room. SLACOM (Rodent Diet #20110615029, Shanghai SLAC Laboratory Animal Co. Ltd.) was available ad libitum. Temperature and humidity were monitored and recorded twice daily.
(§2) Each composition and the vehicle (control) were administered once daily to each of two mice via intravenous bolus injection for 4 consecutive days. The dose levels for the treated groups and the control group are in the below table. Individual doses were based on the most recent body weight.
(§3) Body weights for all animals were measured and recorded at receipt, prior to randomization, and once daily during the study. Body weight change was calculated for mean value of animals relative to Day 1 mean body weight value.

For data set [2], the system named is ICR mice. Put plainly: Tolerability 5.0, 10.0 mg/kg orally in 1% ethanol/4% propylene glycol/5% Solutol HS 15 (Example J). It counts as in vivo, mouse. The procedure:
Fompositions for oral administration were prepared as follows: A) 1.0 mg/mL composition: 5.05 mg of salinomycin sodium was added to 50 μL ethanol and vortexed for 1 minute to yield a clear solution. 200 μL of propylene glycol was then added and vortexed for 1 minute, yielding a clear solution. To this solution was next added 250 μL Solutol® HS 15, with vortexing for 1 minute and sonicating for 1 minute, to yield a clear solution.
Six male ICR mice (Sino-British SIPPR/BK Lab Animal Ltd, Shanghai, China) were assigned to control and treatment groups. […] The individual animal number marked on the tail, and study number comprised a unique identification for each animal. Animal identification was verified during the course of the study. The animals were housed two per cage in stainless steel suspended cage in an environmentally controlled room. SLACOM (Rodent Diet #20110615029, Shanghai SLAC Laboratory Animal Co. Ltd.) was available ad libitum. Temperature and humidity were monitored and recorded twice daily.
Each composition and the vehicle (control) were administered once daily to each of two mice via oral gavage for 5 consecutive days. The dose levels for the treated groups and the control group are in the below table. Individual doses were based on the most recent body weight.
as §3

The test system of data set [3] is ICR mice. Briefly: Tolerability 0.1, 0.3, 1.0 mg/kg IV in 3% propylene glycol/10% Solutol HS 15, 4 days (Example O). Type of data set: in vivo, mouse. The settings on record: for Body weight: FIG. 8. As for the experimental part: as §1, with “A,” for “B,”, “3% propylene glycol” for “10% ethanol”, “0.06,” for “0.06, 0.2,”, “0.2” for “0.3”, “Eight” for “Ten”
as §2, §3

Data set [4] concerns ICR mice. Put plainly: Tolerability 1.5, 2.0, 3.0 mg/kg IV in 1% ethanol/4% propylene glycol/5% Solutol HS 15 (Example I). It counts as in vivo, mouse. The settings on record: for Body weight: FIG. 2. As for the experimental part:
Injectable salinomycin compositions were prepared as follows: A) 0.6 mg/mL composition: 3.03 mg of salinomycin sodium was added to 50 μL ethanol and vortexed for 1 minute to yield a clear solution. 200 μL of propylene glycol was then added and vortexed for 1 minute, yielding a clear solution. To this solution was next added 250 μL Solutol® HS 15, with vortexing for 1 minute and sonicating for 1 minute, to yield a clear solution.
Eight male ICR mice (Sino-British SIPPR/BK Lab Animal Ltd, Shanghai, China) were assigned to control and treatment groups. […] The individual animal number marked on the tail, and study number comprised a unique identification for each animal. Animal identification was verified during the course of the study. The animals were housed two per cage in stainless steel suspended cage in an environmentally controlled room. SLACOM (Rodent Diet #20110615029, Shanghai SLAC Laboratory Animal Co. Ltd.) was available ad libitum. Temperature and humidity were monitored and recorded twice daily.
Each composition and the vehicle (control) were administered once daily to each of two mice via intravenous bolus injection for 5 consecutive days. The dose levels for the treated groups and the control group are in the below table. Individual doses were based on the most recent body weight.
as §3

Data set [5] is classed as physicochemical. An excerpt:
The precipitate observed in Batch A in Example S was isolated and subjected to XRPD analysis. Comparative evaluation was done as shown in FIG. 11 using (1) API used in the formulation (Batch C, manufactured by Neuland Laboratories Ltd., India) and (2) API from a different lot (Batch D).

On to `CC[C@@H](C(=O)[C@@H](C)[C@@H](O)[C@H](C)[C@@H]1O[C@@H]([C@@H](CC)C(=O)O)CC[C@@H]1C)[C@H]1O[C@]2(C=C[C@@H](O)[C@]3(CC[C@@](C)([C@H]4CC[C@](O)(CC)[C@H](C)O4)O3)O2)[C@H](C)C[C@@H]1C` [salinomycin sodium], for which the Clinical observations result in the data set with ICR mice [1] (0.1 mg/kg IV once daily 4 days) is “no abnormalities”; with ICR mice [1] (0.3 mg/kg IV once daily 4 days, dissipated after 3 hours, no abnormalities on days 2, 3, 4), “skin cold to the touch after the first administration”; with ICR mice [1] (1.0 mg/kg IV once daily 4 days, after the first administration, no abnormalities on days 2, 3, 4), “decreased activity, decreased grasping, and skin cold to the touch”; in the data set on ICR mice [3] (0.1 mg/kg IV once daily 4 days) it was “no abnormalities”; with ICR mice [3] (0.3 mg/kg IV once daily 4 days, after initial administration, no abnormalities on days 2, 3, 4), “slight decrease in activity”; in the data set on ICR mice [3] (1.0 mg/kg IV once daily 4 days, no abnormalities on days 2, 3, 4), “decreased activity and leaning”. In addition, the Clinical observations result is “decreased activity levels” in the data set on ICR mice [4] (1.5 mg/kg IV once daily 5 days); “decreased activity and rapid breathing” in the data set with ICR mice [4] (2.0 mg/kg IV once daily 5 days, post dosage); “decreased activity, rapid breathing and loss of reflex activity” in the data set with ICR mice [4] (3.0 mg/kg IV once daily 5 days, after dosing). The Mortality result in the data set with ICR mice [1] (3.0 mg/kg IV) is “died shortly after administration”; in the data set with ICR mice [4] (2.0 mg/kg IV once daily 5 days, two mice), “One of the animals dosed at 2.0 mg/kg was found dead on day 4”. Also, the Body weight result in the data set on ICR mice [1] (each group surviving administration, IV once daily 4 days, FIG. 6) is listed as “relatively stable”; in the data set on ICR mice [3] (1 mg/kg IV once daily 4 days), “decreased steadily”; in the data set with ICR mice [3] (0.1 and 0.3 mg/kg IV once daily 4 days), “remained relatively stable”; in the data set with ICR mice [4] (2 mg/kg IV once daily 5 days), “lost weight”; with ICR mice [4] (1.5 and 3.0 mg/kg IV once daily 5 days), “stable”. Further, in the data set with ICR mice [2] (5, 10 mg/kg oral gavage once daily 5 days, 1% ethanol/4% propylene glycol/5% Solutol HS 15), the Abnormalities detected result is given as “no abnormalities”. Also, the “Body weight change relative to Day 1” value in the data set on ICR mice [2] (5, 10 mg/kg oral gavage once daily 5 days, 1% ethanol/4% propylene glycol/5% Solutol HS 15, FIG. 3) is reported as “all groups added weight”. Besides, the “Maximum oral tolerated dosage” value in the data set on ICR mice [2] (oral gavage once daily 5 days, male ICR mice) is given as “at least 10 mg/kg”. Besides, in the data set with ICR mice [4] (1.5 mg/kg IV once daily 5 days), the Recovery result is given as “returned to normal function at the conclusion of the study”. Further, in data set [5], the “Solubility (conclusion)” value is given as “inadequate solubility”. Also, the “Solid form by XRPD” value in data set [5] (API used in the formulation along with API of a different lot) is “amorphous nature”.
